The source made the active and inactive calls. No cut-off for these calls is given here.
What was measured:
Spinacia oleracea [1] = assay: Inhibition of ATP sythesis in freshly lysed Spinacia oleracea (spinach) chloroplasts; format: functional, organism-based
Spinacia oleracea [2] = assay: Inhibition of thylakoid electron transport chain in intact chloroplasts of Spinacia oleracea (spinach) leaves assessed as inhibition of uncoupled PS2 electron transport from […] to DCPIP at 200 uM relative to control; settings: values are per cent of control
Spinacia oleracea [3] = assay: Induction of Chlorophyll a fluorescence induction curve in freshly lysed chloroplasts of Spinacia oleracea (spinach) at 10 uM; format: functional, organism-based
Spinacia oleracea [4] = assay: Induction of Chlorophyll a fluorescence induction curve in freshly lysed chloroplasts of Spinacia oleracea (spinach) at 300 uM; format: functional, organism-based
Spinacia oleracea [5] = assay: Inhibition of thylakoid electron transport chain in intact chloroplasts of Spinacia oleracea (spinach) leaves assessed as inhibition of uncoupled PS2 electron transport from water to SiM at 300 uM relative to control; settings: values are per cent of control
[6] = target: T1, Chloroplast coupling factor 1 (Spinacia oleracea) (UniProt P00825+P06453+P69447+P06451+P05435+P31853+P06450+P11402+P00833); assay: Inhibition of Ca2+ ATPase activity of coupling factor 1 in chloroplasts of Spinacia oleracea (spinach) leaves at 50 uM; format: protein-complex assay
Spinacia oleracea [7] = assay: Inhibition of thylakoid electron transport chain in intact chloroplasts of Spinacia oleracea (spinach) leaves assessed as inhibition of uncoupled PS2 electron transport from water to SiM at 100 uM relative to control; settings: values are per cent of control
[8] = target: T1, Chloroplast coupling factor 1 (Spinacia oleracea); assay: Inhibition of Mg2+ ATPase activity of coupling factor 1 in chloroplasts of Spinacia oleracea (spinach) leaves at 50 uM; format: protein-complex assay; settings: values are per cent of control
[9] = target: T1, Chloroplast coupling factor 1 (Spinacia oleracea); assay: Inhibition of Mg2+ ATPase activity of coupling factor 1 in chloroplasts of Spinacia oleracea (spinach) leaves at 150 uM; format: protein-complex assay; settings: values are per cent of control
[10] = target: T1, Chloroplast coupling factor 1 (Spinacia oleracea); assay: Inhibition of H+ ATPase activity of coupling factor 1 in chloroplasts of Spinacia oleracea (spinach) leaves at 150 uM; format: protein-complex assay
[11] = target: T1, Chloroplast coupling factor 1 (Spinacia oleracea); assay: Inhibition of Mg2+ ATPase activity of coupling factor 1 in chloroplasts of Spinacia oleracea leaves at 25 uM; format: protein-complex assay; settings: values are per cent of control
Spinacia oleracea [12] = assay: Inhibition of thylakoid electron transport chain in intact chloroplasts of Spinacia oleracea (spinach) leaves assessed as inhibition of uncoupled PS2 electron transport from […] to DCPIP at 100 uM relative to control; settings: values are per cent of control
Spinacia oleracea [13] = assay: Inhibition of thylakoid electron transport chain in intact chloroplasts of Spinacia oleracea (spinach) leaves assessed as inhibition of uncoupled PS2 electron transport from […] to DCPIP at 300 uM relative to control; settings: values are per cent of control
Spinacia oleracea [14] = assay: In vitro inhibition of photophosphorylation in intact chloroplasts of Spinacia oleracea (spinach) leaves assessed as inhibition of uncoupled electron transport from water to methylviologen at 300 uM; format: functional
[15] = target: T1, Chloroplast coupling factor 1 (Spinacia oleracea); assay: Inhibition of H+ ATPase activity of coupling factor 1 in chloroplasts of Spinacia oleracea (spinach) leaves at 50 uM; format: protein-complex assay
Spinacia oleracea [16] = assay: Inhibition of thylakoid electron transport chain in intact chloroplasts of Spinacia oleracea (spinach) leaves assessed as inhibition of uncoupled PS2 electron transport from water to SiM at 400 uM relative to control; settings: values are per cent of control
Spinacia oleracea [17] = assay: In vitro inhibition of photophosphorylation in intact chloroplasts of Spinacia oleracea (spinach) leaves assessed as phosphorylating nonyclic electron transport from water to methylviologen; format: functional
[18] = target: T1, Chloroplast coupling factor 1 (Spinacia oleracea); assay: Inhibition of H+ ATPase activity of coupling factor 1 in chloroplasts of Spinacia oleracea (spinach) leaves at 200 uM; format: protein-complex assay
Spinacia oleracea [19] = assay: In vitro inhibition of photophosphorylation in intact chloroplasts of Spinacia oleracea (spinach) leaves assessed as basal electron transport from water to methylviologen; format: functional
[20] = target: T1, Chloroplast coupling factor 1 (Spinacia oleracea); assay: Inhibition of Ca2+ ATPase activity of coupling factor 1 in chloroplasts of Spinacia oleracea (spinach) leaves at 25 uM; format: protein-complex assay
Spinacia oleracea [21] = assay: Inhibition of ATP sythesis in freshly lysed Spinacia oleracea (spinach) chloroplasts at 150 uM; format: functional, organism-based
Spinacia oleracea [22] = assay: Inhibition of thylakoid electron transport chain in intact chloroplasts of Spinacia oleracea (spinach) leaves assessed as inhibition of uncoupled PS2 electron transport from water to SiM at 200 uM relative to control; settings: values are per cent of control
[23] = target: T1, Chloroplast coupling factor 1 (Spinacia oleracea); assay: Inhibition of Ca2+ ATPase activity of coupling factor 1 in chloroplasts of Spinacia oleracea (spinach) leaves at 150 uM; format: protein-complex assay

## CC(C)[C@@H](C)/C=C/[C@@H](C)[C@H]1CC[C@H]2C3=CC=C4C[C@@H](O)CC[C@]4(C)[C@H]3CC[C@]12C
Spinacia oleracea [1]
  I50: inactive

## O=c1[nH]cnc2c1ncn2[C@@H]1O[C@H](CO)[C@@H](O)[C@H]1O
Spinacia oleracea [1]
  I50: inactive

## OCCc1ccc(O)cc1
Spinacia oleracea [1]
  I50: inactive

## COc1cc(O)cc2c1C(=O)O[C@@H](C)CCCCCCC2 [LASIODIPLODIN]
Spinacia oleracea [2]
  residual activity: 75%
Spinacia oleracea [3]
  Activity: Active
Spinacia oleracea [4]
  Activity: Active
Spinacia oleracea [5]
  residual activity: 40%
[6]
  inhibition: 87.5%
Spinacia oleracea [7]
  residual activity: 80%
[8]
  residual activity: 54.5%
[9]
  residual activity: 49.4%
[10]
  inhibition: 98.5%
[11]
  residual activity: 62.3%
Spinacia oleracea [12]
  residual activity: 87%
Spinacia oleracea [13]
  residual activity: 27%
Spinacia oleracea [14]
  inhibition: 100%
[15]
  inhibition: 95%
Spinacia oleracea [16]
  residual activity: 0%
Spinacia oleracea [1]; read-out: I50
  IC50: 35.6 µM
Spinacia oleracea [17]
  inhibition: Active
[18]
  inhibition: 97.7%
Spinacia oleracea [19]
  inhibition: Active
[20]
  inhibition: 95.6%
Spinacia oleracea [21]
  inhibition: 100%
Spinacia oleracea [22]
  residual activity: 70%
[23]
  inhibition: 84.1%

Reference: ChEMBL document CHEMBL3045232, “Inhibition of photophosphorylation and electron transport chain in thylakoids by lasiodiplodin, a natural product from Botryosphaeria rhodina” (J Agric Food Chem, 2007)
